Patent US7994140B2, “Classes of compounds that interact with GPCRs” (Alchemia Limited, priority 2002, dated 2011)

Biological target: T1, SST5 (Homo sapiens, UniProt P35346)
T1 construct: purchased Perkin Elmer BioSignal; host or cells: HEK 293
Assay: GPCR radioligand binding (RLB) assay, somatostatin SST5, [125I]SST-14
Details: 10 micromolar compound; recombinant human receptor membranes (HEK 293)
Description: Recombinant human receptors expressed in HEK 293 cells were used for all experiments. Receptor membrane preparations were purchased from Perkin Elmer BioSignal. The labelled ligand used in somatostatin GPCR RLB assays was [^125I]SST-14 and in melanocortin assays was [^125I]NDP-αMSH. All assays were done in a 96-well plate format using either glass fiber filter mats or filter plates. All reagents purchased were of the highest quality.
Specific assay buffer, incubation and washing conditions were optimized for each receptor however they all followed the same general format. The procedures for both filter mat and filter plate formats are based on the receptor manufacturers recommendations or those described extensively in the literature. The procedures are briefly outlined below.
In assays where filter mats are used we incubate receptor membranes, assay buffer and [^125I] labelled ligand in 96 well microplates. Add compounds to incubation mixture and continue incubation for optimized period. Presoak Filter mat GF/B in 0.5% PEI for ˜2 hr at 4° C. On completion of assay mixture incubation add additional 100 μL/well of assay buffer immediately prior to filtration. Filter the assay mixture onto the GF/B filter mat using a cell harvester. Dry the filter mats prior to sealing them into a scintillation counting bag with scintillant. Radioactivity in each well is detected by liquid scintillation counting.
In assays where filter plates are used Multiscreen glass fiber filter plates (Millipore, Cat No MAFCNOB10) are precoated with 0.5% PEI for ˜2 hr at 4° C. All wells are then washed with 200 µl/well assay buffer and filtered using the Multiscreen Separation System. Subsequently receptor membranes, assay buffer and labelled ligands are added to the wells and equilibrated. Compounds for testing are then added to the mixture and incubation is continued for an optimized time. Plates are then put into the Multiscreen Separation System and the assay mixture is filtered through the plate under vacuum. Each well is then washed several times with assay buffer. Plates are then dried prior to putting sealing tape onto the bottom of the plate. Scintillant is added to each well and radioactivity measured by liquid scintillation counting.
Raw data was analysed according to standard methods using either GraphPad Prism software or IDDBS ActivityBase software.

T1 sequence (P35346 whole entry): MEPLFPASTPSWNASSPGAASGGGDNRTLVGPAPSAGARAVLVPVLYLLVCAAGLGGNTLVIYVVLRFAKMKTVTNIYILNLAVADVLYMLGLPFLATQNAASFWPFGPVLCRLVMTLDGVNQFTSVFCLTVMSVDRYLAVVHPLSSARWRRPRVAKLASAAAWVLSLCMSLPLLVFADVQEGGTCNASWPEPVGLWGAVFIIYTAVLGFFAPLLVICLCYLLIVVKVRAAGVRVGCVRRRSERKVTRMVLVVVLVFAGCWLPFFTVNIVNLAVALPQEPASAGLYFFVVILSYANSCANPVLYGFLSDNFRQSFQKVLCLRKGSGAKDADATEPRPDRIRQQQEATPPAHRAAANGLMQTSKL

Row | SMILES | SST5 inhibition at 10 micromolar
1 | COC[C@H]1OC(OCc2ccc(-c3ccccc3)cc2)[C@H](NC(=O)CCNC(=N)N)[C@@H](OCc2ccccc2)[C@@H]1O (stereo partly drawn) [Compound 31] | + (Indicates inhibition greater than . . . 50%)
2 | COC[C@H]1OC(OCc2ccc3ccccc3c2)[C@H](NC(=O)CCCNC(=N)N)[C@@H](OCc2ccccc2)[C@@H]1O (stereo partly drawn) [Compound 41] | + (Indicates inhibition greater than . . . 50%)
3 | COC[C@H]1OC(OCc2ccc3ccccc3c2)[C@H](NC(=O)CCCN)[C@@H](OCc2ccc(Cl)cc2)[C@@H]1O (stereo partly drawn) [Compound 42] | + (Indicates inhibition greater than . . . 50%)
4 | COC[C@H]1OC(OCc2ccc(Cl)cc2)[C@H](NC(=O)CCCN)[C@@H](OCc2ccc(-c3ccccc3)cc2)[C@@H]1O (stereo partly drawn) [Compound 44] | + (Indicates inhibition greater than . . . 50%)
5 | COC[C@H]1OC(OCc2ccc(Cl)cc2)[C@H](NC(=O)CCCNC(=N)N)[C@@H](OCc2ccccc2)[C@@H]1O (stereo partly drawn) [Compound 47] | + (Indicates inhibition greater than . . . 50%)
6 | COC[C@H]1OC(OCCc2ccccc2)[C@H](NC(=O)CCCN)[C@@H](OCc2ccc(-c3ccccc3)cc2)[C@@H]1O (stereo partly drawn) [Compound 48] | + (Indicates inhibition greater than . . . 50%)
7 | COC[C@H]1OC(OCCc2ccccc2)[C@H](NC(=O)CCCN)[C@@H](OCc2ccc3ccccc3c2)[C@@H]1O (stereo partly drawn) [Compound 50] | + (Indicates inhibition greater than . . . 50%)
8 | COC[C@H]1OC(OCCc2ccccc2)[C@H](NC(=O)CCCN)[C@@H](OCc2ccc(Cl)cc2)[C@@H]1O (stereo partly drawn) [Compound 51] | + (Indicates inhibition greater than . . . 50%)
9 | COC[C@H]1OC(OCCc2ccccc2)[C@H](NC(=O)CCCNC(=N)N)[C@@H](OCc2ccc(Cl)cc2)[C@@H]1O (stereo partly drawn) [Compound 52] | + (Indicates inhibition greater than . . . 50%)
10 | COC[C@H]1OC(OCc2ccccc2)[C@H](NC(=O)CCCN)[C@@H](OCc2ccc3ccccc3c2)[C@@H]1O (stereo partly drawn) [Compound 54] | + (Indicates inhibition greater than . . . 50%)
11 | COC[C@H]1OC(OCc2ccc(Cl)cc2)[C@H](NC(=O)CCCN)[C@@H](OCc2ccc(Cl)cc2)[C@@H]1O (stereo partly drawn) [Compound 55] | + (Indicates inhibition greater than . . . 50%)
12 | CO[C@H]1[C@H](O)[C@@H](COCc2ccc3ccccc3c2)OC(OCc2ccc(-c3ccccc3)cc2)[C@@H]1NC(=O)CCNC(=N)N (stereo partly drawn) [Compound 60] | + (Indicates inhibition greater than . . . 50%)
13 | CO[C@H]1[C@H](O)[C@@H](COCc2ccccc2)OC(OCc2ccc(Cl)cc2)[C@@H]1NC(=O)CCCN (stereo partly drawn) [Compound 91] | + (Indicates inhibition greater than . . . 50%)
14 | CO[C@H]1[C@H](O)[C@@H](COCc2cccc(O)c2)OC(OCc2ccc3ccccc3c2)[C@@H]1NC(=O)CCCN (stereo partly drawn) [Compound 109] | + (Indicates inhibition greater than . . . 50%)
15 | CO[C@H]1[C@H](O)[C@@H](COCc2cccc(O)c2)OC(OCc2ccc(Cl)cc2)[C@@H]1NC(=O)CCCN (stereo partly drawn) [Compound 111] | + (Indicates inhibition greater than . . . 50%)
16 | CO[C@H]1[C@H](O)[C@@H](COCc2ccc(Cl)cc2)OC(OCc2cccc(O)c2)[C@@H]1NC(=O)CCCN (stereo partly drawn) [Compound 118] | + (Indicates inhibition greater than . . . 50%)
17 | CSC1OC(COCc2ccccc2)C(O)C(OCc2ccccc2)C1NC(=O)CN (stereo not drawn) [Compound 119] | + (Indicates inhibition greater than . . . 50%)
18 | CSC1OC(COCc2ccccc2)C(O)C(OCc2ccccc2)C1NC(=O)CCCN (stereo not drawn) [Compound 123] | + (Indicates inhibition greater than . . . 50%)
